Starred links: 1 amine or outer side, 2 acyl side, 3 side chain; linkers in the order of their positions; H or OH if unused. Positions of bridges follow the written chain, without caps; N, C: chain ends. Non-standard residues stand in square brackets, D forms with d. Residues, ends and D or L forms follow the SMILES beside them. *: point of attachment. hPhe(3-Cl-4-CF3) = N[C@@H](CCc1ccc(C(F)(F)F)c(Cl)c1)C(=O)O; X19 = CC(C)(C)Oc1cc(CC[C@H](N[*:1])C(=O)[*:2])cc(Cl)c1Cl; X28 = CCCCOc1cc(CC[C@H](N[*:1])C(=O)[*:2])cc(Cl)c1Cl; X29 = N#Cc1cc(CC[C@H](N[*:1])C(=O)[*:2])cc(Cl)c1Cl; X15 = COc1cc(CC[C@H](N[*:1])C(=O)[*:2])cc(Cl)c1Cl; X49 = Cn1ccc2cc(CC[C@H](N[*:1])C(=O)[*:2])ccc21; X52 = CN([C@@H](Cc1ccc(C#N)nc1)C(=O)[*:2])[*:1]; NMeGly(cPent) = CN[C@H](C(=O)O)C1CCCC1; X21 = O=C(CN(c1cccc(Cl)c1)[*:1])[*:2]; X43 = O=C(CN(c1ccc(Cl)cc1)[*:1])[*:2]; NMeGly(cBu) = CN[C@H](C(=O)O)C1CCC1; NMeCha = CN[C@@H](CC1CCCCC1)C(=O)O; NMeChg = CN[C@H](C(=O)O)C1CCCCC1; X7 = O=C(CN(c1ccsc1)[*:1])[*:2]; NMeD = CN[C@@H](CC(=O)O)C(=O)O; NMeL = CN[C@@H](CC(C)C)C(=O)O; NMeV = CN[C@H](C(=O)O)C(C)C; NPhGly = O=C(O)CNc1ccccc1; NMeA = CN[C@@H](C)C(=O)O; NMeAib = CNC(C)(C)C(=O)O; Piperidide = C1CCN(*)CC1; Ac5c = NC1(C(=O)O)CCCC1; Aze = O=C(O)[C@@H]1CCN1; Sar = CNCC(=O)O
Legend:
[1] = target: T1, Kras and SOS1 (biotin-tagged human Kras loaded with GDP, His-tagged human SOS1) (Homo sapiens, UniProt P01116, G12D); experiment: Protein-protein interaction inhibition between Kras and SOS1 (KrasGl2D-SOS PPI) using AlphaScreen; assay type: binding; settings: AlphaScreen; biotin-tagged human Kras loaded with GDP, His-tagged human SOS1; read-out: KRAS G12D-SOS PPI IC50
T1 construct: made in house; host or cells: E. coli (stated for Kras only)
Outline: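 Donor beads (nickel) hold His-SOS1; acceptor beads (streptavidin) hold biotin-Kras bound to GDP. Signal measured at 520-620 nm following 680 nm excitation.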

[2] = system: Human pancreatic cancer cell line AsPC-1; experiment: Measurement of AsPC-1 cell growth inhibition (AsPC-1 CGI); assay type: cell-based; settings: 96 h
Outline: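 AsPC-1 cells in 15% FBS RPMI-1640 were exposed to test compound for 96 hours at 37° C, with CellTiter-Glo as endpoint.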

T1 sequence (P01116 1-188 isoform P01116-2 G12D): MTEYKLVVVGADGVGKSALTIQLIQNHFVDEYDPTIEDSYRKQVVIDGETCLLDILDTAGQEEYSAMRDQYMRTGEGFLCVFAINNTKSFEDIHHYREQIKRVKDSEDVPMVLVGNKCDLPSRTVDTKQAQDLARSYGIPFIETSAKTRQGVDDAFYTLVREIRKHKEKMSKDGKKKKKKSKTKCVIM

Structure (SMILES): CC[C@H](C)[C@@H]1NC(=O)[C@H](C)N(C)C(=O)C[C@@H](C(=O)N2CCCCC2)N(C)C(=O)[C@H](C(C)C)N(C)C(=O)C2(CCCC2)NC(=O)[C@@H]2CCCN2C(=O)[C@H](CCc2cc(Cl)c(Cl)c(OC)c2)NC(=O)CN(C)C(=O)[C@H](CC2CCCCC2)N(C)C(=O)CN(C)C(=O)CN(C)C1=O [Compound 2061] ([NMeA]I[Sar][Sar][NMeCha][Sar][X15]P[Ac5c][NMeV][NMeD]-Piperidide; lactam N-11)
- IC50 [1]: 21 nM
- IC50 [2]: > 500 nM

Structure (SMILES): CC[C@H](C)[C@@H]1NC(=O)[C@H](CC(C)C)N(C)C(=O)C[C@@H](C(=O)N2CCCCC2)N(C)C(=O)[C@H](C2CCCC2)N(C)C(=O)C2(CCCC2)NC(=O)[C@@H]2CCCN2C(=O)[C@H](CCc2ccc3c(ccn3C)c2)NC(=O)CN(C)C(=O)[C@H](CC2CCCCC2)N(C)C(=O)[C@@H]2CCN2C(=O)[C@H](C)N(C)C1=O [Compound 2064] ([NMeL]I[NMeA][Aze][NMeCha][Sar][X49]P[Ac5c][NMeGly(cPent)][NMeD]-Piperidide; lactam N-11)
- IC50 [1]: 12 nM
- IC50 [2]: 100 to 500 nM

Structure (SMILES): CCCCOc1cc(CC[C@@H]2NC(=O)CN(C)C(=O)[C@H](CC3CCCCC3)N(C)C(=O)CN(C)C(=O)CN(C)C(=O)[C@H]([C@@H](C)CC)NC(=O)[C@H](C)N(C)C(=O)C[C@@H](C(=O)N3CCCCC3)N(C)C(=O)[C@H](C3CCCCC3)N(C)C(=O)C3(CCCC3)NC(=O)[C@@H]3CCCN3C2=O)cc(Cl)c1Cl [Compound 2066] ([NMeA]I[Sar][Sar][NMeCha][Sar][X28]P[Ac5c][NMeChg][NMeD]-Piperidide; lactam N-11)
- IC50 [1]: 63 nM
- IC50 [2]: > 500 nM

Structure (SMILES): CC[C@H](C)[C@@H]1NC(=O)[C@H](C)N(C)C(=O)C[C@@H](C(=O)N2CCCCC2)N(C)C(=O)[C@H](C(C)C)N(C)C(=O)C2(CCCC2)NC(=O)[C@@H]2CCCN2C(=O)[C@H](CCc2cc(Cl)c(Cl)c(C#N)c2)NC(=O)CN(C)C(=O)[C@H](CC2CCCCC2)N(C)C(=O)CN(C)C(=O)CN(C)C1=O [Compound 2071] ([NMeA]I[Sar][Sar][NMeCha][Sar][X29]P[Ac5c][NMeV][NMeD]-Piperidide; lactam N-11)
- IC50 [1]: 9.2 nM
- IC50 [2]: > 500 nM

Structure (SMILES): CC[C@H](C)[C@@H]1NC(=O)[C@H](C)N(C)C(=O)C[C@@H](C(=O)N2CCCCC2)N(C)C(=O)[C@H](C(C)C)N(C)C(=O)C2(CCCC2)NC(=O)[C@@H]2CCCN2C(=O)[C@H](CCc2cc(Cl)c(Cl)c(OC(C)(C)C)c2)NC(=O)CN(C)C(=O)[C@H](CC2CCCCC2)N(C)C(=O)CN(C)C(=O)CN(C)C1=O [Compound 2073] ([NMeA]I[Sar][Sar][NMeCha][Sar][X19]P[Ac5c][NMeV][NMeD]-Piperidide; lactam N-11)
- IC50 [1]: 12 nM
- IC50 [2]: > 500 nM

Structure (SMILES): CC[C@H](C)[C@@H]1NC(=O)[C@H](C)N(C)C(=O)C[C@@H](C(=O)N2CCCCC2)N(C)C(=O)[C@H](C2CCCCC2)N(C)C(=O)C2(CCCC2)NC(=O)[C@@H]2CCCN2C(=O)[C@H](CCc2cc(Cl)c(Cl)c(C#N)c2)NC(=O)CN(C)C(=O)[C@H](CC2CCCCC2)N(C)C(=O)CN(C)C(=O)CN(C)C1=O [Compound 2075] ([NMeA]I[Sar][Sar][NMeCha][Sar][X29]P[Ac5c][NMeChg][NMeD]-Piperidide; lactam N-11)
- IC50 [1]: 1.1 nM
- IC50 [2]: > 500 nM

Structure (SMILES): CC[C@H](C)[C@@H]1NC(=O)[C@H](C)N(C)C(=O)C[C@@H](C(=O)N2CCCCC2)N(C)C(=O)[C@H](C2CCCCC2)N(C)C(=O)C2(CCCC2)NC(=O)[C@@H]2CCCN2C(=O)[C@H](CCc2cc(Cl)c(Cl)c(OC)c2)NC(=O)CN(C)C(=O)[C@H](CC2CCCCC2)N(C)C(=O)CN(C)C(=O)CN(C)C1=O [Compound 2081] ([NMeA]I[Sar][Sar][NMeCha][Sar][X15]P[Ac5c][NMeChg][NMeD]-Piperidide; lactam N-11)
- IC50 [1]: 2 nM
- IC50 [2]: > 500 nM

Structure (SMILES): CC[C@H](C)[C@@H]1NC(=O)[C@H](C)N(C)C(=O)C[C@@H](C(=O)N2CCCCC2)N(C)C(=O)[C@H](C2CCCCC2)N(C)C(=O)C2(CCCC2)NC(=O)[C@@H]2CCCN2C(=O)[C@H](CCc2cc(Cl)c(Cl)c(OC(C)(C)C)c2)NC(=O)CN(C)C(=O)[C@H](CC2CCCCC2)N(C)C(=O)CN(C)C(=O)CN(C)C1=O [Compound 2082] ([NMeA]I[Sar][Sar][NMeCha][Sar][X19]P[Ac5c][NMeChg][NMeD]-Piperidide; lactam N-11)
- IC50 [1]: 41 nM
- IC50 [2]: > 500 nM

Structure (SMILES): CCCCOc1cc(CC[C@@H]2NC(=O)CN(C)C(=O)[C@H](CC3CCCCC3)N(C)C(=O)CN(C)C(=O)CN(C)C(=O)[C@H]([C@@H](C)CC)NC(=O)[C@H](C)N(C)C(=O)C[C@@H](C(=O)N3CCCCC3)N(C)C(=O)[C@H](C(C)C)N(C)C(=O)C3(CCCC3)NC(=O)[C@@H]3CCCN3C2=O)cc(Cl)c1Cl [Compound 2083] ([NMeA]I[Sar][Sar][NMeCha][Sar][X28]P[Ac5c][NMeV][NMeD]-Piperidide; lactam N-11)
- IC50 [1]: 52 nM
- IC50 [2]: > 500 nM

Structure (SMILES): CC[C@H](C)[C@@H]1NC(=O)[C@H](C)N(C)C(=O)C[C@@H](C(=O)N2CCCCC2)N(C)C(=O)[C@H](C2CCC2)N(C)C(=O)C(C)(C)N(C)C(=O)CN(c2ccccc2)C(=O)[C@H](CCc2ccc(C(F)(F)F)c(Cl)c2)NC(=O)CN(C)C(=O)[C@H](C2CCC2)N(C)C(=O)[C@@H]2CCN2C(=O)[C@H](C)N(C)C1=O [Compound 2144] ([NMeA]I[NMeA][Aze][NMeGly(cBu)][Sar][hPhe(3-Cl-4-CF3)][NPhGly][NMeAib][NMeGly(cBu)][NMeD]-Piperidide; lactam N-11)
- IC50 [1]: 6.9 nM
- IC50 [2]: > 500 nM

Structure (SMILES): CC[C@H](C)[C@@H]1NC(=O)[C@H](C)N(C)C(=O)C[C@@H](C(=O)N2CCCCC2)N(C)C(=O)[C@H](C2CCC2)N(C)C(=O)C(C)(C)N(C)C(=O)CN(c2cccc(Cl)c2)C(=O)[C@H](CCc2ccc(C(F)(F)F)c(Cl)c2)NC(=O)CN(C)C(=O)[C@H](C2CCC2)N(C)C(=O)[C@@H]2CCN2C(=O)[C@H](C)N(C)C1=O [Compound 2146] ([NMeA]I[NMeA][Aze][NMeGly(cBu)][Sar][hPhe(3-Cl-4-CF3)][X21][NMeAib][NMeGly(cBu)][NMeD]-Piperidide; lactam N-11)
- IC50 [1]: 5.1 nM
- IC50 [2]: > 500 nM

Structure (SMILES): CC[C@H](C)[C@@H]1NC(=O)[C@H](C)N(C)C(=O)C[C@@H](C(=O)N2CCCCC2)N(C)C(=O)[C@H](C2CCC2)N(C)C(=O)C(C)(C)N(C)C(=O)CN(c2ccc(Cl)cc2)C(=O)[C@H](CCc2ccc(C(F)(F)F)c(Cl)c2)NC(=O)CN(C)C(=O)[C@H](C2CCC2)N(C)C(=O)[C@@H]2CCN2C(=O)[C@H](C)N(C)C1=O [Compound 2147] ([NMeA]I[NMeA][Aze][NMeGly(cBu)][Sar][hPhe(3-Cl-4-CF3)][X43][NMeAib][NMeGly(cBu)][NMeD]-Piperidide; lactam N-11)
- IC50 [1]: 8 nM
- IC50 [2]: > 500 nM

Structure (SMILES): CC[C@H](C)[C@@H]1NC(=O)[C@H](C)N(C)C(=O)C[C@@H](C(=O)N2CCCCC2)N(C)C(=O)[C@H](C2CCC2)N(C)C(=O)C2(CCCC2)NC(=O)CN(c2ccsc2)C(=O)[C@H](CCc2ccc(C(F)(F)F)c(Cl)c2)NC(=O)CN(C)C(=O)[C@H](CC2CCCCC2)N(C)C(=O)CN(C)C(=O)CN(C)C1=O [Compound 2149] ([NMeA]I[Sar][Sar][NMeCha][Sar][hPhe(3-Cl-4-CF3)][X7][Ac5c][NMeGly(cBu)][NMeD]-Piperidide; lactam N-11)
- IC50 [1]: 4 nM
- IC50 [2]: > 500 nM

Structure (SMILES): CC[C@H](C)[C@@H]1NC(=O)[C@H](CC(C)C)N(C)C(=O)C[C@@H](C(=O)N2CCCCC2)N(C)C(=O)[C@H](C2CCCCC2)N(C)C(=O)C2(CCCC2)NC(=O)[C@H](Cc2ccc(C#N)nc2)N(C)C(=O)[C@H](CCc2ccc(C(F)(F)F)c(Cl)c2)NC(=O)CN(C)C(=O)[C@H](CC2CCCCC2)N(C)C(=O)CN(C)C(=O)CN(C)C1=O [Compound 2169] ([NMeL]I[Sar][Sar][NMeCha][Sar][hPhe(3-Cl-4-CF3)][X52][Ac5c][NMeChg][NMeD]-Piperidide; lactam N-11)
- IC50 [1]: 6.1 nM
- IC50 [2]: > 500 nM
